Active and inactive are the calls of the source. The rule behind the calls is not given here.
Legend:
Arenaria serpyllifolia [1] = experiment: Herbicidal activity against Arenaria serpyllifolia in cucumber plants fields exposed to 180 L/ha compound fumigation treatment assessed as hand weeding time per plot relative to untreated control; type: functional
Capsella bursa-pastoris [2] = experiment: Herbicidal activity against Capsella bursa-pastoris in tomato plants fields exposed to 180 L/ha compound fumigation treatment assessed as hand weeding time per plot relative to untreated control; type: functional
Solanum lycopersicum [3] = experiment: Increase in crop yield in Solanum lycopersicum (tomato) plants exposed to 120 L/ha compound fumigation treatment assessed as marketable yield fruit yield (reference value: 51.3 ton/ha); type: functional
Solanum lycopersicum [4] = experiment: Increase in crop yield in Cucumis sativus (cucumber) plants exposed to 90 L/ha compound fumigation treatment assessed as large fruit yield (reference value: 19.5 ton/ha); type: functional
Phytophthora melonis = experiment: Fungicidal activity against Phytophthora melonis-induced blight disease in cucumber plants at 120 to 180 L/ha measured 20 to 60 days post compound treatment; type: functional, organism-based
Arenaria serpyllifolia [5] = experiment: Herbicidal activity against Arenaria serpyllifolia in cucumber plants fields exposed to 90 L/ha compound fumigation treatment assessed as hand weeding time per plot relative to untreated control; type: functional
Arenaria serpyllifolia [6] = experiment: Herbicidal activity against Arenaria serpyllifolia in cucumber plants fields exposed to 120 L/ha compound fumigation treatment assessed as hand weeding time per plot (reference value: 258.3 hr/ha); type: functional
Cucumis sativus [7] = experiment: Increase in plant height of Cucumis sativus (cucumber) exposed to 120 L/ha compound fumigation treatment measured 30 days after compound treatment (reference value: 85.6 cm); type: functional
Solanum lycopersicum [8] = experiment: Increase in plant height of Solanum lycopersicum (tomato) exposed to 90 L/ha compound fumigation treatment measured 50 days after compound treatment (reference value: 86.2 cm); type: functional
Solanum lycopersicum [9] = experiment: Increase in crop yield in Cucumis sativus (cucumber) plants exposed to 120 L/ha compound fumigation treatment assessed as extra-large fruit yield (reference value: 7.2 ton/ha); type: functional
Cucumis sativus [10] = experiment: Increase in plant height of Cucumis sativus (cucumber) exposed to 90 L/ha compound fumigation treatment measured 30 days after compound treatment (reference value: 85.6 cm); type: functional
Arenaria serpyllifolia [11] = experiment: Herbicidal activity against Arenaria serpyllifolia in tomato plants fields exposed to 180 L/ha compound fumigation treatment assessed as hand weeding time per plot (reference value: 243.3 hr/ha); type: functional
Capsella bursa-pastoris [12] = experiment: Herbicidal activity against Capsella bursa-pastoris in cucumber plants fields exposed to 180 L/ha compound fumigation treatment assessed as hand weeding time per plot relative to untreated control; type: functional
Solanum lycopersicum [13] = experiment: Increase in crop yield in Cucumis sativus (cucumber) plants exposed to 90 L/ha compound fumigation treatment assessed as medium fruit yield (reference value: 38.6 ton/ha); type: functional
Arenaria serpyllifolia [14] = experiment: Herbicidal activity against Arenaria serpyllifolia in cucumber plants fields exposed to 180 L/ha compound fumigation treatment assessed as hand weeding time per plot (reference value: 258.3 hr/ha); type: functional
Solanum lycopersicum [15] = experiment: Increase in crop yield in Cucumis sativus (cucumber) plants exposed to 90 L/ha compound fumigation treatment assessed as marketable yield fruit yield (reference value: 65.3 ton/ha); type: functional
Arenaria serpyllifolia [16] = experiment: Herbicidal activity against Arenaria serpyllifolia in tomato plants fields exposed to 120 L/ha compound fumigation treatment assessed as hand weeding time per plot relative to untreated control; type: functional
Digitaria sanguinalis [17] = experiment: Herbicidal activity against Digitaria sanguinalis (hairy crabgrass) in cucumber plants fields exposed to 180 L/ha compound fumigation treatment assessed as hand weeding time per plot relative to untreated control; type: functional
Capsella bursa-pastoris [18] = experiment: Herbicidal activity against Capsella bursa-pastoris in cucumber plants fields exposed to 90 L/ha compound fumigation treatment assessed as hand weeding time per plot (reference value: 258.3 hr/ha); type: functional
Solanum lycopersicum [19] = experiment: Increase in crop yield in Cucumis sativus (cucumber) plants exposed to 180 L/ha compound fumigation treatment assessed as extra-large fruit yield (reference value: 7.2 ton/ha); type: functional
Digitaria sanguinalis [20] = experiment: Herbicidal activity against Digitaria sanguinalis (hairy crabgrass) in tomato plants fields exposed to 180 L/ha compound fumigation treatment assessed as hand weeding time per plot (reference value: 243.3 hr/ha); type: functional
Capsella bursa-pastoris [21] = experiment: Herbicidal activity against Capsella bursa-pastoris in cucumber plants fields exposed to 180 L/ha compound fumigation treatment assessed as hand weeding time per plot (reference value: 258.3 hr/ha); type: functional
Arenaria serpyllifolia [22] = experiment: Herbicidal activity against Arenaria serpyllifolia in tomato plants fields exposed to 120 L/ha compound fumigation treatment assessed as hand weeding time per plot (reference value: 243.3 hr/ha); type: functional
Solanum lycopersicum [23] = experiment: Increase in crop yield in Cucumis sativus (cucumber) plants exposed to 180 L/ha compound fumigation treatment assessed as marketable yield fruit yield (reference value: 65.3 ton/ha); type: functional
Botrytis cinerea = experiment: Fungicidal activity against Botryotinia fuckeliana-induced withering in tomato plants at 120 to 180 L/ha measured 20 to 60 days post compound treatment; type: functional, organism-based
Solanum lycopersicum [24] = experiment: Increase in crop yield in Solanum lycopersicum (tomato) plants exposed to 90 L/ha compound fumigation treatment assessed as marketable yield fruit yield (reference value: 51.3 ton/ha); type: functional
Solanum lycopersicum [25] = experiment: Increase in crop yield in Solanum lycopersicum (tomato) plants exposed to 180 L/ha compound fumigation treatment assessed as extra-large fruit yield (reference value: 3.8 ton/ha); type: functional
Arenaria serpyllifolia [26] = experiment: Herbicidal activity against Arenaria serpyllifolia in cucumber plants fields exposed to 120 L/ha compound fumigation treatment assessed as hand weeding time per plot relative to untreated control; type: functional
Digitaria sanguinalis [27] = experiment: Herbicidal activity against Digitaria sanguinalis (hairy crabgrass) in cucumber plants fields exposed to 120 L/ha compound fumigation treatment assessed as hand weeding time per plot relative to untreated control; type: functional
Solanum lycopersicum [28] = experiment: Increase in crop yield in Cucumis sativus (cucumber) plants exposed to 180 L/ha compound fumigation treatment assessed as large fruit yield (reference value: 19.5 ton/ha); type: functional
Solanum lycopersicum [29] = experiment: Increase in crop yield in Solanum lycopersicum (tomato) plants exposed to 120 L/ha compound fumigation treatment assessed as extra-large fruit yield (reference value: 3.8 ton/ha); type: functional
Digitaria sanguinalis [30] = experiment: Herbicidal activity against Digitaria sanguinalis (hairy crabgrass) in tomato plants fields exposed to 120 L/ha compound fumigation treatment assessed as hand weeding time per plot (reference value: 243.3 hr/ha); type: functional
Capsella bursa-pastoris [31] = experiment: Herbicidal activity against Capsella bursa-pastoris in cucumber plants fields exposed to 90 L/ha compound fumigation treatment assessed as hand weeding time per plot relative to untreated control; type: functional
Digitaria sanguinalis [32] = experiment: Herbicidal activity against Digitaria sanguinalis (hairy crabgrass) in tomato plants fields exposed to 90 L/ha compound fumigation treatment assessed as hand weeding time per plot (reference value: 243.3 hr/ha); type: functional
Capsella bursa-pastoris [33] = experiment: Herbicidal activity against Capsella bursa-pastoris in tomato plants fields exposed to 90 L/ha compound fumigation treatment assessed as hand weeding time per plot (reference value: 243.3 hr/ha); type: functional
Solanum lycopersicum [34] = experiment: Increase in crop yield in Solanum lycopersicum (tomato) plants exposed to 120 L/ha compound fumigation treatment assessed as medium fruit yield (reference value: 32.3 ton/ha); type: functional
Arenaria serpyllifolia [35] = experiment: Herbicidal activity against Arenaria serpyllifolia in cucumber plants fields exposed to 90 L/ha compound fumigation treatment assessed as hand weeding time per plot (reference value: 258.3 hr/ha); type: functional
Capsella bursa-pastoris [36] = experiment: Herbicidal activity against Capsella bursa-pastoris in tomato plants fields exposed to 90 L/ha compound fumigation treatment assessed as hand weeding time per plot relative to untreated control; type: functional

## Cl/C=C/CCl [1,3-DICHLOROPROPENE]
Arenaria serpyllifolia [1]
  Activity: 45%
Capsella bursa-pastoris [2]
  Activity: 45%
Solanum lycopersicum [3]
  Crop_yield: 68.1 tons/ha
Solanum lycopersicum [4]
  Crop_yield: 24.8 tons/ha
Phytophthora melonis
  Activity: Active
Arenaria serpyllifolia [5]
  Activity: 45%
Arenaria serpyllifolia [6]
  Time: 74.4 hr/ha
Cucumis sativus [7]
  Activity: 96.8 cm
Solanum lycopersicum [8]
  Activity: 98.3 cm
Solanum lycopersicum [9]
  Crop_yield: 12.1 tons/ha
Cucumis sativus [10]
  Activity: 92.6 cm
Arenaria serpyllifolia [11]
  Time: 55.6 hr/ha
Capsella bursa-pastoris [12]
  Activity: 45%
Solanum lycopersicum [13]
  Crop_yield: 47.7 tons/ha
Arenaria serpyllifolia [14]
  Time: 62.3 hr/ha
Solanum lycopersicum [15]
  Crop_yield: 84 tons/ha
Arenaria serpyllifolia [16]
  Activity: 45%
Digitaria sanguinalis [17]
  Activity: 45%
Capsella bursa-pastoris [18]
  Time: 90.5 hr/ha
Solanum lycopersicum [19]
  Crop_yield: 14.8 tons/ha
Digitaria sanguinalis [20]
  Time: 55.6 hr/ha
Capsella bursa-pastoris [21]
  Time: 62.3 hr/ha
Arenaria serpyllifolia [22]
  Time: 66.4 hr/ha
Solanum lycopersicum [23]
  Crop_yield: 98.8 tons/ha
Botrytis cinerea
  Activity: Active
Solanum lycopersicum [24]
  Crop_yield: 62.4 tons/ha
Solanum lycopersicum [25]
  Crop_yield: 8.4 tons/ha
Arenaria serpyllifolia [26]
  Activity: 45%
Digitaria sanguinalis [27]
  Activity: 45%
Solanum lycopersicum [28]
  Crop_yield: 31.7 tons/ha
Solanum lycopersicum [29]
  Crop_yield: 6.4 tons/ha
Digitaria sanguinalis [30]
  Time: 66.4 hr/ha
Capsella bursa-pastoris [31]
  Activity: 45%
Digitaria sanguinalis [32]
  Time: 85.6 hr/ha
Capsella bursa-pastoris [33]
  Time: 85.6 hr/ha
Solanum lycopersicum [34]
  Crop_yield: 42.5 tons/ha
Arenaria serpyllifolia [35]
  Time: 90.5 hr/ha
Capsella bursa-pastoris [36]
  Activity: 45%

— ChEMBL document CHEMBL3046912, “Effectiveness of 1,3-dichloropropene as an alternative to methyl bromide in rotations of tomato (Solanum lycopersicum) and cucumber (Cucumis sativus) in China” (2012)
